# Literature values, collected in publication PMC8198792, “Prediction of Anticancer Peptides with High Efficacy and Low Toxicity by Hybrid Model Based on 3D Structure of Peptides” (International Journal of Molecular Sciences, 2021).
# Like-named read-outs stand apart in the source and are kept apart here.
# Tested on: cancer cell lines
# Parameters: method as in 6 sources, ref CancerPPD [45] and SATPdb ||| ref CancerPPD/SATPdb ||| ref CancerPPD, SATPdb, Swissprot (PDB) ||| ref CancerPPD/SATPdb/Swissprot(PDB) ||| ref CancerPPD / SATPdb ||| ...
# Details: cited from earlier work
# From the text: Supplement ijms-22-05630-s001.zip/ACPs(seguence).xlsx, sheet "D1" | column: Activity || Supplement ijms-22-05630-s001.zip/ACPs(seguence).xlsx, sheet "D2" | column: Activity || Supplement ijms-22-05630-s001.zip/ACPs(seguence).xlsx, sheet "D3" | column: Activity || (+ 2 further places)
# [1] = ACPs dataset D3 (supplement sheet "D3"), 1 = ACP, 0 = non-ACP, ref CancerPPD [45] and SATPdb
# [2] = ACPs dataset D4 (sheet "D4"), label 1 = ACP (CancerPPD ID), 0 = non-ACP (non-anticancer AMP, SATPdb ID), ref CancerPPD [45] and SATPdb
# [3] = ACPs dataset D5 (sheet "D5"), label 1 = ACP (positive set), 0 = non-ACP (negative set), ref CancerPPD [45] and SATPdb
# [4] = ACPs dataset D1, 1 = ACP (positive), 0 = non-ACP (negative), label taken from databases, ref CancerPPD [45] and SATPdb
# [5] = ACPs dataset D4 (sheet "D4"), label 1 = ACP, experimentally validated ACPs, ref CancerPPD [45] and SATPdb
# [6] = ACPs dataset D5 (sheet "D5"), label 1 = ACP (positive set), sequences with CancerPPD/SATPdb ID, ref CancerPPD, SATPdb
# [7] = ACPs dataset sheet D2, 1 = ACP (CancerPPD/SATPdb ID), 0 = non-ACP (Swissprot/PDB ID), ref CancerPPD, SATPdb, Swissprot (PDB)
# [8] = ACPs dataset D4 (sheet "D4"), label 1 = ACP, 0 = non-ACP, ref CancerPPD / SATPdb
# [9] = ACPs dataset D5, sheet "D5", label 1 = ACP, 0 = non-ACP, ref CancerPPD [45] and SATPdb
# [10] = ACPs dataset D1, label 1 = ACP, 0 = non-ACP (non-anticancer AMPs from SATPdb), ref CancerPPD/SATPdb
# [11] = ACPs dataset D2 (supplement ACPs(seguence).xlsx, sheet D2), dataset label 1/0 (ACP / non-ACP), entries identified by Swissprot(PDB ID), ref CancerPPD/SATPdb/Swissprot(PDB)
# [12] = ACPs dataset D3 (sheet "D3"), label 1 = ACP, 0 = non-ACP, ref CancerPPD/SATPdb
substance,measurement,setting,value
KWKLFKKIPKFLHLA [compound 1134],Activity,[1],1
same,Activity,[2],1
same,Activity,[3],1
GIGKFLHSAKKFGKAFVGEIMNS [compound 1116],Activity,[1],1
same,Activity,[2],1
same,Activity,[3],1
TTITGKKCQSWAAMFPHRHSKT [satpdb18336],Activity,[4],1
same,Activity,[5],1
same,Activity,[6],1
same,Activity,[7],1
INGSLDKRLLPDVET [satpdb28594],Activity,[4],1
same,Activity,[5],1
same,Activity,[6],1
same,Activity,[7],1
SKWSECSRTCGGGVKFQER [satpdb16830],Activity,[4],1
same,Activity,[5],1
same,Activity,[6],1
same,Activity,[7],1
HFLLTKVNLAKKIL [satpdb11375],Activity,[1],0
same,Activity,[8],0
same,Activity,[9],0
LPKWKVFKKIEKVGRNIRNGIVKAGPAIAVLGEAKALG [compound 4275],Activity,[1],1
same,Activity,[2],1
same,Activity,[3],1
FLPIVGRLISGLL [satpdb10939],Activity,[1],0
same,Activity,[8],0
same,Activity,[9],0
QPWSQCSATCGDGVRERRR [satpdb12468],Activity,[4],1
same,Activity,[5],1
same,Activity,[6],1
same,Activity,[7],1
RRPKGRGKRRREKQRPDAVPRR [satpdb18651],Activity,[4],1
same,Activity,[5],1
same,Activity,[6],1
same,Activity,[7],1
GFGMALKLLKKVL [compound 3586],Activity,[1],1
same,Activity,[2],1
same,Activity,[3],1
GMATKAGTAFGKAAKAIIGAAL [satpdb11334],Activity,[4],0
same,Activity,[2],0
KRRHWFPLSFQEFLEQLRRFRDQLPFP [satpdb12966],Activity,[10],0
same,Activity,[8],0
LCNERPSQTWSGNCGNTAHCDKQCQDWEKASHGACHKRENHWKCFCYFNC [1BK8 NMR - A 1-50],Activity,[11],0
same,Activity,[3],0
GIGKFLHAAKKFAKAFVAEIMNS [compound 1354],Activity,[1],1
same,Activity,[2],1
same,Activity,[3],1
FLPVIAGLAAKVLPKLFCAITKKC [satpdb12195],Activity,[10],0
same,Activity,[2],0
PAWRKARRWARRMKKLAA [compound 1618],Activity,[4],1
same,Activity,[5],1
same,Activity,[6],1
same,Activity,[7],1
DFKLFAVTIKYR [satpdb15826],Activity,[4],1
same,Activity,[5],1
same,Activity,[6],1
same,Activity,[7],1
FFGTALKIAANVLPTAICKILKKC [satpdb13355],Activity,[10],0
same,Activity,[8],0
GLFTLIKGAAKLIGKTVPKKQARLGMNLWLVKLPTNVKT [satpdb12795],Activity,[10],0
same,Activity,[8],0
GIIKKIIKKI [compound 2839],Activity,[1],1
same,Activity,[2],1
same,Activity,[3],1
SPPNQPSIMTFDYAKTNK [satpdb13153],Activity,[10],0
same,Activity,[8],0
GIGKLFLHAAKKFAKAFVAEKMNS [satpdb10222],Activity,[4],0
same,Activity,[2],0
LNWGAVLKHVVK [satpdb11336],Activity,[1],0
same,Activity,[8],0
same,Activity,[9],0
"MRLKKRFKKFFISRKEYEKIEEILDIGLAKAMEETKDDELLTYDEIKELLGDK [3BPQ X-ray 2.20,A/C,1-52]",Activity,[11],0
same,Activity,[9],0
AEVAPAPAAAAPAKAPKKKAAAKPKKAGPS [satpdb11318],Activity,[4],0
same,Activity,[2],0
FLPLIASVAANLAPKIICKITKTC [satpdb12152],Activity,[10],0
same,Activity,[2],0
CLGVGSCNDFAGCGYAIVCFW [satpdb11014],Activity,[4],0
same,Activity,[2],0
GKWLSLLKHILK [compound 3661],Activity,[1],1
same,Activity,[2],1
same,Activity,[3],1
RGFRKHFNKLVKKVKHTISETAHVAKDTAVIAG [satpdb11665],Activity,[1],0
same,Activity,[8],0
same,Activity,[9],0
MVQNDFVDSYDVTMLLQDDDGKQYYEYHKGLSLSDFEVLYGNTADEIIKLRLDKVL [2LE2 NMR - A/B 1-56],Activity,[11],0
same,Activity,[9],0
KNWKKILGKIIKVVK [compound 3509],Activity,[1],1
same,Activity,[2],1
same,Activity,[3],1
INEFLERSGIPRQRNQ [satpdb14958],Activity,[4],1
same,Activity,[5],1
same,Activity,[6],1
same,Activity,[7],1
GFGCPFNQYECHAHCSGVPGYKGGYCKGLFKQTCNCY [satpdb12844],Activity,[10],0
same,Activity,[8],0
GLFDVIKAVASVIGGL [compound 4057],Activity,[1],1
same,Activity,[2],1
same,Activity,[3],1
GVWSTILGGLKKFAKGGLDAIVNPK [satpdb10425],Activity,[4],0
same,Activity,[2],0
GSIPCEGSCVFIPCISAIIGCSCSNKVCYKN [compound 4379],Activity,[4],1
same,Activity,[5],1
same,Activity,[6],1
same,Activity,[7],1
TGASSEEEDPF [satpdb18128],Activity,[4],1
same,Activity,[5],1
same,Activity,[6],1
same,Activity,[7],1
RGGRLTYTRpRFTVTVGR [satpdb14856],Activity,[12],0
same,Activity,[8],0
same,Activity,[9],0
ILPWKWPWAPARR [satpdb12615],Activity,[12],0
same,Activity,[8],0
same,Activity,[9],0
AWKKWAKAWKWAKAKWWAKAA [compound 4482],Activity,[4],1
same,Activity,[5],1
same,Activity,[6],1
same,Activity,[7],1
KRFKKFFKKLKNSVKKRVKKFFRKPRVIGVTFPF [satpdb10654],Activity,[4],0
same,Activity,[2],0
FKCRRWQWRMKKLGA [compound 1111],Activity,[1],1
same,Activity,[5],1
same,Activity,[6],1
GLLGPLLKIAKKVGSNLL [satpdb10622],Activity,[1],0
same,Activity,[8],0
same,Activity,[9],0
KWKLFKKIPKFLHLAKKF [compound 3290],Activity,[4],1
same,Activity,[5],1
same,Activity,[6],1
same,Activity,[7],1
KWKLFAKIGIGKFLHLAKKF [compound 1837],Activity,[1],1
same,Activity,[2],1
same,Activity,[3],1
TEENRELVSELKRP [satpdb12614],Activity,[4],1
same,Activity,[5],1
same,Activity,[6],1
same,Activity,[7],1
GIFSSRKCKTPSKTFKGYCTRDSNCDTSCRYEGYPAGD [satpdb10659],Activity,[4],0
same,Activity,[2],0
KIKSCYYLPCFVTS [satpdb14785],Activity,[4],1
same,Activity,[5],1
same,Activity,[6],1
same,Activity,[7],1
LRVRLASHLRKLRKRLLRDADDLQKRLAVY [compound 1665],Activity,[4],1
same,Activity,[5],1
same,Activity,[6],1
same,Activity,[7],1
FLPAVLRVAAQVVPTVFCAISKKC [satpdb11368],Activity,[4],0
same,Activity,[2],0
ATYYGNGLYCNKQKCWVDWNKASREIGKIIVNGWVQHGPWAPR [satpdb12250],Activity,[10],0
same,Activity,[2],0
GVVDILKGAAKDLAGHLATKVMNKL [satpdb14637],Activity,[12],0
same,Activity,[8],0
same,Activity,[9],0
ILPILSLIGGLLGK [compound 4439],Activity,[4],1
same,Activity,[5],1
same,Activity,[6],1
same,Activity,[7],1
INWKKIAEVGGKILSS [satpdb11077],Activity,[4],0
same,Activity,[2],0
CSTNTFSLSDYWGNKGNWCTATHECMSWCK [satpdb10487],Activity,[4],0
same,Activity,[2],0
ILPFKFPFFPFRR [satpdb11203],Activity,[4],0
same,Activity,[2],0
SVLGTVKDLLIGAGKSAAQSVLTANSCKLSNSC [satpdb10581],Activity,[4],0
same,Activity,[2],0
KTCENLSGTFKGPCIPDGNCNKHCRNNEHLLSGRCRDDFRCWCTNRC [6NOM NMR - A 1-47],Activity,[11],0
same,Activity,[3],0
ALWKTLLKKVLKA [satpdb11986],Activity,[12],0
rrrrrrrrGEDIIRNIARHLAQVGDSMDR [compound 4227],Activity,[1],1
same,Activity,[2],1
same,Activity,[3],1
EECGPNEVFNTCGSACAPTCAQPKTRICTMQCRIGCQCQEGFLRNGEGACVLPENC [1CCV NMR - A 1-56],Activity,[11],0
same,Activity,[9],0
